Biological target: Cathepsin S (Homo sapiens, UniProt P25774)
Assay: Inhibition Assay
Description: 5 μL of a human cathepsin S enzyme (R&D1183-CY-010) was added to a 96-well plate so as to be 20 ng/well.

Sequence of Cathepsin S (P25774 whole entry): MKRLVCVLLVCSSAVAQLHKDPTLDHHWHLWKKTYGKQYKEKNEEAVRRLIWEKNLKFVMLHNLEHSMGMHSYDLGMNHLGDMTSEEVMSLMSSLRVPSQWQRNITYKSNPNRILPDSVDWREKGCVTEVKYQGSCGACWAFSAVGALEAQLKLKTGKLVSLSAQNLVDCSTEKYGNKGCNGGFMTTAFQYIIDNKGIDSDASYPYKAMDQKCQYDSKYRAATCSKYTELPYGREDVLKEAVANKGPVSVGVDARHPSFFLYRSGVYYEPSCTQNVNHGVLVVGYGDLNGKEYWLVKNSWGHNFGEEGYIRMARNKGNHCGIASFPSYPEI

- IC50: 1.6 nM
Compound: CN(C)C(=O)CN1CCC(CCOc2ccc(-c3nc(C#N)nc4c3ncn4C)cc2C(F)(F)F)CC1 [US9328118, 72]

From BindingDB's records for patent US9328118 (Astellas Pharma Inc, 2016)
